Converted amounts (≈) assume the structure as drawn.
What was measured:
Escherichia coli [1] = assay: Antibacterial activity against Escherichia coli assessed as reduction in bacterial growth; type: functional
Pseudomonas aeruginosa [2] = assay: Antibacterial activity against Pseudomonas aeruginosa assessed as reduction in bacterial growth; type: functional
Staphylococcus aureus [3] = assay: Antibacterial activity against Staphylococcus aureus assessed as reduction in microbial growth; type: functional
Klebsiella sp. = assay: Antibacterial activity against Klebsiella sp. assessed as inhibition of bacterial growth; type: functional
Pneumocystis carinii = assay: Antifungal activity against Pneumocystis carinii assessed as reduction in fungal growth; type: functional, organism-based
Toxoplasma gondii = assay: Antiparasitic activity against Toxoplasma gondii assessed as parasitic growth inhibition; type: functional, organism-based
Escherichia coli [4] = assay: Antibacterial activity against Escherichia coli assessed as bacterial growth inhibition incubated for 18 hrs by CLSI protocol based Mueller-Hinton broth assay; type: functional
Pseudomonas aeruginosa [5] = assay: Antibacterial activity against Pseudomonas aeruginosa assessed as reduction in bacterial growth by broth microdilution method; type: functional
Staphylococcus aureus [6] = assay: Antibacterial activity against Staphylococcus aureus assessed as reduction in microbial growth by CLSI based broth microdilution method; type: functional
Streptococcus pyogenes = assay: Antibacterial activity against Streptococcus pyogenes assessed as reduction in microbial growth by CLSI based broth microdilution method; type: functional
Streptococcus pneumoniae [7] = assay: Antibacterial activity against Streptococcus pneumoniae; type: functional
Streptococcus pneumoniae [8] = assay: Antimicrobial activity against Streptococcus […] assessed as bacterial growth inhibition by measuring zone of inhibition at 50 ug/ml by agar cup diffusion assay; type: functional; conditions: read-out: IZ
Bacillus subtilis [9] = assay: Antimicrobial activity against Bacillus subtilis RCMB 010069 assessed as bacterial growth inhibition by measuring zone of inhibition at 50 ug/ml by agar cup diffusion assay; type: functional; conditions: read-out: IZ
Bacillus subtilis [10] = assay: Antibacterial activity against Bacillus subtilis; type: functional
Staphylococcus aureus [11] = assay: Antibacterial activity against Staphylococcus aureus; type: functional
Salmonella typhimurium = assay: Antibacterial activity against Salmonella typhimurium DT104 assessed as reduction in bacterial growth; type: functional, Salmonella enterica subsp. enterica serovar Typhimurium; conditions: Salmonella enterica
Escherichia coli [12] = assay: Antibacterial activity against Escherichia coli ATCC 25922 assessed as bacterial growth inhibition; type: functional
Staphylococcus aureus [13] = assay: Antibacterial activity against Staphylococcus aureus ATCC 3750 assessed as reduction in bacterial growth; type: functional
Bacillus subtilis [14] = assay: Antibacterial activity against Bacillus subtilis 6633 assessed as reduction in bacterial growth; type: functional

COc1ccc2cc(-c3nc4sc5c(c4c(=O)n3N)CCCC5)ccc2c1
MIC (Escherichia coli [1]): 12.5 µg/mL (≈ 33.1 µM) | MIC (Pseudomonas aeruginosa [2]): 12.5 µg/mL (≈ 33.1 µM) | MIC (Staphylococcus aureus [3]): 12.5 µg/mL | MIC (Klebsiella sp.): 12.5 µg/mL (≈ 33.1 µM)

COc1ccc(-c2cc(C#Cc3ccc(C(=O)O)cc3)cc(Cc3cnc(N)nc3N)c2)cc1OC
IC50 (Pneumocystis carinii): 1200 nM | IC50 (Toxoplasma gondii): 420 nM

CC1(C)S[C@@H]2[C@H](NC(=O)[C@H](N)c3ccccc3)C(=O)N2[C@H]1C(=O)O [AMPICILLIN]
MIC (Escherichia coli [4]): 100 µg/mL (≈ 286 µM) | MIC (Pseudomonas aeruginosa [5]): 100 µg/mL (≈ 286 µM) | MIC (Staphylococcus aureus [6]): 250 µg/mL | MIC (Streptococcus pyogenes): 100 µg/mL | MIC (Streptococcus pneumoniae [7]): 0.98 µg/mL (≈ 2.8 µM) | zone of inhibition at 50 µg/mL (Streptococcus pneumoniae [8]): 23.8 mm | zone of inhibition at 50 µg/mL (Bacillus subtilis [9]): 32.4 mm | MIC (Bacillus subtilis [10]): 0.49 µg/mL (≈ 1.4 µM) | MIC (Staphylococcus aureus [11]): 0.49 µg/mL (≈ 1.4 µM) | MIC (Salmonella typhimurium): 49 µg/mL (≈ 140 µM) | MIC (Escherichia coli [12]): 4 µg/mL (≈ 11.4 µM) | MIC (Staphylococcus aureus [13]): 50 µg/mL (≈ 143 µM) | MIC (Bacillus subtilis [14]): 4 µg/mL (≈ 11.4 µM)

Reference: ChEMBL document CHEMBL5532639, “Heterocyclic pyrimidine derivatives as promising antibacterial agents” (Eur J Med Chem, 2023)
